For test [1], the target named is T1, κ opioid receptor (Homo sapiens, UniProt P41145). Description: κ-opioid receptor radioligand dose displacement binding assay. Also on record: expressed in transfected cells; host or cells: HEK-293. The method, then:
Membranes from recombinant HEK-293 cells expressing the human κ opioid receptor (κ) (cloned in house) were prepared by lysing cells in ice cold hypotonic buffer (2.5 mM MgCl2, 50 mM HEPES, pH 7.4) (10 mL/10 cm dish) followed by homogenization with a tissue grinder/Teflon pestle. Membranes were collected by centrifugation at 30,000×g for 15 min at 4° C. and pellets were resuspended in hypotonic buffer to a final concentration of 1-3 mg/mL. Protein concentrations were determined using the BioRad protein assay reagent with bovine serum albumen as standard. Aliquots of κ receptor membranes were stored at […]

Test [2] concerns the target T1, κ opioid receptor. Briefly: κ-opioid receptor [35S]GTPγS functional assay. Also on record: expressed in transfected cells. The note with it: for Emax: relative to the effect elicited by U69,593. The test is classed as biochemical. The method, then: Functional [^35S]GTPγS binding assays were conducted as follows. κ opioid receptor membrane solution was prepared by sequentially adding final concentrations of 0.026 μg/μl κ membrane protein (in-house), 10 μg/mL saponin, 3 μM GDP and 0.20 nM [^35S]GTPγS to binding buffer (100 mM NaCl, 10 mM MgCl2, 20 mM HEPES, pH 7.4) on ice. The prepared membrane solution (190 μl/well) was transferred to 96-shallow well polypropylene plates containing 10 μl of 20× concentrated stock solutions of agonist prepared in DMSO. Plates were incubated for 30 min at a temperature of about 25° C. with shaking.
κ GTP EC50 is the concentration of a compound providing 50% of the maximal response for the compound at a κ receptor.
κ GTP Emax (%) is the maximal effect elicited by a compound relative to the effect elicited by U69,593.

Test [3] deals with T2, μ-opioid receptor (Homo sapiens, UniProt P35372). Briefly: μ-opioid receptor [35S]GTPγS functional assay. The test is classed as biochemical. On the set-up: purchased Perkin Elmer, Shelton, Conn. The conditions noted are these: for Emax: relative to the effect elicited by DAMGO; for EC50: μ-receptor membranes, read-out: GTPγS μ EC50. The method, then: [^35S]GTPγS functional assays were conducted using freshly thawed μ-receptor membranes (Perkin Elmer, Shelton, Conn.). Assay reactions were prepared by sequentially adding the following reagents to binding buffer (100 mM NaCl, 10 mM MgCl2, 20 mM HEPES, pH 7.4) on ice (final concentrations indicated): membrane protein (0.026 mg/mL), saponin ([…]), GDP ([…]) and [^35S]GTPγS (0.20 nM; Perkin Elmer, Shelton, Conn.). The prepared membrane solution (190 μl/well) was transferred to 96-shallow well polypropylene plates containing 10 μI of 20× concentrated stock solutions of the agonist [D-Ala^e, N-methyl-Phe^4 Gly-ol^5]-enkephalin (DAMGO) prepared in dimethyl sulfoxide (DMSO). Plates were incubated for 30 min at about 25° C. with shaking. […] Data were analyzed using the sigmoidal dose-response curve fitting functions in GraphPad PRISM v. 3.0, or an in-house function for non-linear, sigmoidal dose-response curve-fitting.
μ GTP EC50 is the concentration of a compound providing 50% of the maximal response for the compound at a μ-opioid receptor.
μ GTP Emax (%) is the maximal effect elicited by a compound relative to the effect elicited by DAMGO, a standard μ agonist. Generally, the μ GTP Emax (%) value measures the efficacy of a compound to treat or prevent pain or other Conditions.
Target sequence in this assay (P35372 whole entry, species assumed): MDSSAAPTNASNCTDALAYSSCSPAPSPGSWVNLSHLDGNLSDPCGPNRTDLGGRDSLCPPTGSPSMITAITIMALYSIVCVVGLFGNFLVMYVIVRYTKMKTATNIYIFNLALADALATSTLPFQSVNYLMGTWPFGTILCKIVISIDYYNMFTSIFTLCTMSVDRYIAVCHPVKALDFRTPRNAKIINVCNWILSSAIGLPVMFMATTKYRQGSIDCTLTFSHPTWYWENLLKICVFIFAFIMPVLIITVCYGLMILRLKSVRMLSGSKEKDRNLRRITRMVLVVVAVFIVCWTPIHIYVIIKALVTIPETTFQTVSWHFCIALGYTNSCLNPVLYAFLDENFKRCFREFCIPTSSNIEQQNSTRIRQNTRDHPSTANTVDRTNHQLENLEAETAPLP

Test [4] deals with T2, μ-opioid receptor. Description: μ-opioid receptor radioligand dose-displacement binding assay. The method, then:
Radioligand dose-displacement binding assays for μ-opioid receptors used 0.3 nM [^3H]-diprenorphine (Perkin Elmer, Shelton, Conn.), with […] membrane protein/well in a final volume of […] binding buffer (10 mM MgCl2, 1 mM EDTA, 5% DMSO, 50 mM HEPES, pH 7.4). Reactions were carried out in the absence or presence of increasing concentrations of unlabeled naloxone. All reactions were conducted in 96-deep well polypropylene plates for 2 hr at room temperature. […] The data were analyzed using the one-site competition curve fitting functions in GraphPad PRISM™ v. 3.0 or higher (San Diego, Calif.), or an in-house function for one-site competition curve-fitting.
Target sequence in this assay (P35372 whole entry): as the sequence (P35372 whole entry, species assumed) above

[5] abbreviates: [3H]-U69,593 displacement, HEK-293 membranes, read-out: Ki (nM) Opioid Receptor κ.
Setting [6] is: κ membrane protein (in-house), read-out: GTPγS κ EC50.
Where [7] appears, read: [3H]-diprenorphine displacement, read-out: Ki (nM) Opioid Receptor μ.

Consider 14 compounds from US20180127374A1, “BE[…] AS OPIOID RECEPTORS MODULATORS” (Purdue Pharma L.P., priority 2012, published 2018).

Where two headings read alike, the source gives them in different places.

T1 sequence (P41145 whole entry): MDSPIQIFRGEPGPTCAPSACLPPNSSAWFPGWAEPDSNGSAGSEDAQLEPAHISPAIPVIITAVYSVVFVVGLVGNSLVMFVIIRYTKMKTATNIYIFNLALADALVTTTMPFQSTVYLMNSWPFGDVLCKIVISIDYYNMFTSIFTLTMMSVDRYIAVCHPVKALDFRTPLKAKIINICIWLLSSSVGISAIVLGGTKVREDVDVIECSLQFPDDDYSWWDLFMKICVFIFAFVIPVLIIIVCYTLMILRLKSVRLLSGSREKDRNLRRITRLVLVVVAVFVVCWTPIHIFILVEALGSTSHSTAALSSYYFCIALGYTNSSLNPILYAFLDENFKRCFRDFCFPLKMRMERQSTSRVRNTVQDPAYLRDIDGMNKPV

For `COc1ccc2c(c1)[C@]1(CCNC(=O)c3ccc(C(=O)O)cc3)CCN(CC3CC3)[C@H](C2)[C@@H]1C` [Compound 25, 4-((2-((2R,6R,11R)-3-(cyclopropylmethyl)-8-methoxy-11-methyl-1,2,3,4,5,6-hexahydro-2,6-methanobenzo[d]azocin-6-yl)ethyl)carbamoyl)benzoic acid], at κ opioid receptor [1] (setting [5]), the Ki came to 479 ± 36.3 nM. Moreover, the Emax on κ opioid receptor [2] was found to be 69.3%; on μ-opioid receptor [3] it was 104%. For the same compound, the 50% effective concentration (EC50) at κ opioid receptor [2] (setting [6]) was found to be 2.41 µM; on μ-opioid receptor [3], 0.584 µM.
As to `COC(=O)c1cccc(C(=O)NCC[C@]23CCN(CC4CC4)[C@H](Cc4ccc(OC)cc42)[C@@H]3C)c1` [Compound 26, methyl 3-((2-((2R,6R,11R)-3-(cyclopropylmethyl)-8-methoxy-11-methyl-1,2,3,4,5,6-hexahydro-2,6-methanobenzo[d]azocin-6-yl)ethyl)carbamoyl)benzoate], the Ki worked out at 0.51 ± 0.07 nM on κ opioid receptor [1] (setting [5]) and 158 ± 44.3 nM on μ-opioid receptor [4] (setting [7]). The Emax was determined as 105% at κ opioid receptor [2] and 95% on μ-opioid receptor [3]. The results for the concentration for a half-maximal effect (EC50) on κ opioid receptor [2] (setting [6]) and at μ-opioid receptor [3] were 0.0153 µM and 0.0461 µM, respectively.
On to `COc1ccc2c(c1)[C@]1(CCOc3ccc(C(=O)O)cc3)CCN(CC3CC3)[C@H](C2)[C@@H]1C` [Compound 27, 4-(2-((2R,6S,11R)-3-(cyclopropylmethyl)-8-methoxy-11-methyl-1,2,3,4,5,6-hexahydro-2,6-methanobenzo[d]azocin-6-yl)ethoxy)benzoic acid], for which the Ki on κ opioid receptor [1] (setting [5]) stood at 330 ± 70.1 nM. In addition, the Emax amounted to 88.3% on κ opioid receptor [2] and 94.7% on μ-opioid receptor [3]. In addition, the results for the EC50 at κ opioid receptor [2] (setting [6]) and at μ-opioid receptor [3] were 3.69 µM and 0.245 µM, respectively.
At κ opioid receptor [1], `COc1ccc2c(c1)[C@@]1(CCC[C@@H](O)CO)CCN(CC3CC3)C(C2)[C@@H]1C` [Compound 10, (2R)-5-((6S,11R)-3-(cyclopropylmethyl)-8-methoxy-11-methyl-1,2,3,4,5,6-hexahydro-2,6-methanobenzo[d]azocin-6-yl)pentane-1,2-diol] came in with a Ki of 6.68 ± 0.61 nM. The Ki on μ-opioid receptor [4] turned out to be 3090 ± 922 nM. On κ opioid receptor [2], this compound showed an EC50 of 0.0943 µM and an Emax of 95%.
Take `COc1ccc2c(c1)[C@@]1(CCCCOCc3ccccc3)CCN(CC3CC3)C(C2)[C@@H]1C` [Compound 12, (6S,11R)-6-(4-(benzyloxy)butyl)-3-(cyclopropylmethyl)-8-methoxy-11-methyl-1,2,3,4,5,6-hexahydro-2,6-methanobenzo[d]azocine]: the Ki worked out at 0.27 ± 0.01 nM on κ opioid receptor [1] (setting [5]) and 166 ± 51.8 nM on μ-opioid receptor [4] (setting [7]). Moreover, the Emax is 97.7% on κ opioid receptor [2] and 30.8% at μ-opioid receptor [3]. The figures for the half-maximal effective concentration (EC50) on κ opioid receptor [2] (setting [6]) and on μ-opioid receptor [3] were 0.0144 µM and 0.58 µM, respectively.
Take `C[C@H](NC(=O)C[C@@]12CCN(CC3CC3)C(Cc3ccc(O)cc31)[C@@H]2C)C(N)=O` [Compound 1, (2S)-2-(2-((6R,11R)-3-(cyclopropylmethyl)-8-hydroxy-11-methyl-1,2,3,4,5,6-hexahydro-2,6-methanobenzo[d]azocin-6-yl)acetamido)propanamide]: the values for the Ki at κ opioid receptor [1] (setting [5]) and on μ-opioid receptor [4] (setting [7]) were 1.48 ± 0.27 nM and 31.7 ± 6.24 nM, respectively. The Emax at κ opioid receptor [2] was 31.3%. The figures for the EC50 at κ opioid receptor [2] (setting [6]) and on μ-opioid receptor [3] (μM) were 0.00891 µM and more than 20 µM, respectively.
In the case of `C[C@H]1[C@H]2Cc3ccc(O)cc3[C@]1(CCNC(=O)CN(C)C)CCN2CC1CC1` [Compound 30, N-(2-((2R,6R,11R)-3-(cyclopropylmethyl)-8-hydroxy-11-methyl-1,2,3,4,5,6-hexahydro-2,6-methanobenzo[d]azocin-6-yl)ethyl)-2-(dimethylamino)acetamide], the Ki on κ opioid receptor [1] (setting [5]) stood at 0.05 ± 0.02 nM. Also, the Emax came to 96.5% on κ opioid receptor [2] and 82.2% on μ-opioid receptor [3]. Besides, the concentration giving a half-maximal response (EC50) at κ opioid receptor [2] (setting [6]) is 0.00177 µM; on μ-opioid receptor [3], 0.00485 µM.
`COc1ccc2c(c1)[C@@]1(CC(=O)O)CCN(CC3CC3)C(C2)[C@@H]1C` [Compound 5, 2-((6R,11R)-3-(cyclopropylmethyl)-8-methoxy-11-methyl-1,2,3,4,5,6-hexahydro-2,6-methanobenzo[d]azocin-6-yl)acetic acid]: the Ki on κ opioid receptor [1] (setting [5]) was 4460 ± 1850 nM. The EC50 at μ-opioid receptor [3] (μM) is more than 20 µM.
Regarding `COc1ccc2c(c1)[C@@]1(CC(=O)N[C@@H](C)C(N)=O)CCN(CC3CC3)C(C2)[C@@H]1C` [Compound 7, (2S)-2-(2-((6R,11R)-3-(cyclopropylmethyl)-8-methoxy-11-methyl-1,2,3,4,5,6-hexahydro-2,6-methanobenzo[d]azocin-6-yl)acetamido)propanamide], the Ki on κ opioid receptor [1] (setting [5]) turned out to be 193 ± 68.7 nM. Also, the Emax at κ opioid receptor [2] is 29.7%. Moreover, the EC50 was 5 µM at κ opioid receptor [2] (setting [6]) and more than 20 µM at μ-opioid receptor [3] (μM).
As to `COc1ccc2c(c1)[C@@]1(CC(=O)O)CCN(CC3CC3)[C@@H](C2)[C@H]1C` [Compound 29, 2-((2S,6R,11S)-3-(cyclopropylmethyl)-8-methoxy-11-methyl-1,2,3,4,5,6-hexahydro-2,6-methanobenzo[d]azocin-6-yl)acetic acid], the Ki on κ opioid receptor [1] ([3H]-U69,593 displacement, μM, read-out: Ki Opioid Receptor κ) was more than 20000 nM. Besides, on μ-opioid receptor [3], the Emax came out at 24.8% and the EC50 came out at 0.346 µM.
As for `C[C@H]1[C@H]2Cc3ccc(O)cc3[C@@]1(CCNC(=O)CN)CCN2CC1CC1` [Compound 31], at κ opioid receptor [1] (setting [5]), the Ki turned out to be 0.07 ± 0.01 nM. For the same compound, the figures for the Emax at κ opioid receptor [2] and at μ-opioid receptor [3] were 90.3% and 102%, respectively. In addition, the EC50 amounted to 0.0012 µM on κ opioid receptor [2] (setting [6]) and 0.00287 µM at μ-opioid receptor [3].
The matching figures for `C[C@H]1[C@H]2Cc3ccc(O)cc3[C@]1(CCOc1ccc(C(=O)O)cc1)CCN2CC1CC1` [Compound 28, 4-(2-((2R,6S,11R)-3-(cyclopropylmethyl)-8-hydroxy-11-methyl-1,2,3,4,5,6-hexahydro-2,6-methanobenzo[d]azocin-6-yl)ethoxy)benzoic acid]: 5.75 ± 1.04 nM, 110%, 86.3%, 0.0391 µM and 0.00592 µM.
As to `C[C@H]1[C@H]2Cc3ccc(O)cc3[C@]1(CCCC(N)=O)CCN2Cc1ccccc1` [Compound 19, 4-((2R,6R,11R)-3-benzyl-8-hydroxy-11-methyl-1,2,3,4,5,6-hexahydro-2,6-methanobenzo[d]azocin-6-yl)butanamide], the Ki on μ-opioid receptor [4] (setting [7]) is 2.65 ± 0.36 nM. For the same compound, on κ opioid receptor [2] (κ membrane protein (in-house), μM, read-out: GTPγS κ EC50), the EC50 was more than 20 µM. At μ-opioid receptor [3], the Emax came to 13.7% and the EC50 was determined as 0.0401 µM.
Consider `COc1ccc2c(c1)[C@]1(CCNC(=O)c3cccc(C(=O)O)c3)CCN(CC3CC3)[C@H](C2)[C@@H]1C` [Compound 24, 3-((2-((2R,6R,11R)-3-(cyclopropylmethyl)-8-methoxy-11-methyl-1,2,3,4,5,6-hexahydro-2,6-methanobenzo[d]azocin-6-yl)ethyl)carbamoyl)benzoic acid], for which, on κ opioid receptor [1] (setting [5]), the Ki is 130 ± 26.5 nM. Also, the Emax on κ opioid receptor [2] came out at 88.7%; on μ-opioid receptor [3] it was 76.3%. Moreover, the EC50 is 0.664 µM on κ opioid receptor [2] (setting [6]) and 0.251 µM at μ-opioid receptor [3].
